{"source": "patent US20260325645A1", "about": "“IMPROVEMENTS IN OR RELATING TO COMPOSITIONS FOR IMPROVEMENT OF PHOTODYNAMIC THERAPY” (SYDERMA LTD, priority 2023, published 2026)", "key": {"[1]": {"test_system": "ATM", "details": "reference 10; cited from earlier work"}, "[2]": {"test_system": "ATR", "details": "reference 10; cited from earlier work"}, "[3]": {"details": "references 11, 12, 13; cited from earlier work"}, "[4]": {"test_system": "active lesions (acne)", "assay": "Combined analysis of acne lesion clearance, Examples 3, 6 and 7 (FIG. 6)", "format": "in vivo, human", "details": "pre- and final post-treatment data of Examples 3, 6 and 7; P 0.005 paired, two-tailed T-test"}, "[5]": {"details": "clinical trials; reference 17; cited from earlier work"}, "[6]": {"test_system": "actinic keratoses", "assay": "Theobromine alone on actinic keratoses (comparative Examples 4 and 5)", "format": "in vivo, human", "details": "0.5% theobromine solution applied once, 1 month later", "description": "A person presented with actinic keratoses on their scalp. Three actinic keratoses were selected by a qualified dermatologist and treated once with 0.5% theobromine topical preparation solution. The theobromine solution was prepared in 25% ethanol and 50% glycerol, adjusted to pH 8 via 100 mM sodium hydrogen carbonate solution. For treatment, theobromine solution was applied to the selected lesions of the scalp in a thin aqueous film using 50 μL of the solution per lesion (1 drop). The solution was left to dry and permeate the skin for 20 minutes. The position of the lesions was marked with a water-soluble marker and the lesions were photographed. The patient was reviewed 1 month later by a qualified dermatologist and the lesions were compared with the baseline photographs.\nA person presented with actinic keratoses on their face and scalp. An actinic keratosis was selected by a qualified dermatologist on their right cheek and treated once with 0.5% theobromine topical preparation solution. The theobromine solution was prepared in 25% ethanol and 50% glycerol, adjusted to pH 8 via 100 mM sodium hydrogen carbonate solution. For treatment, theobromine solution was applied to the selected lesions of the […] in a thin aqueous film using 50 μL of the solution per lesion (1 drop). The solution was left to dry and permeate the skin for 20 minutes. […]"}, "[7]": {"test_system": "acne", "assay": "Theobromine treatment of acne (comparative Examples 8-11)", "format": "in vivo, human", "details": "0.5% theobromine topical; for improvement of acne: data not shown", "description": "(§1) A patient presented with acne bilaterally on their face. The acne presented as active inflammatory reaction or as visible white liquid-filled extrusions. For the purposes of the test, the affected area was split into two sections, left cheek and right cheek. The right face was treated with 0.5% theobromine topical preparation solution. The theobromine solution was prepared in 25% ethanol and 50% glycerol, adjusted to pH 8 via 100 mM sodium hydrogen carbonate solution.\nFor the purposes of the treatment, theobromine solution was applied to the right side of the face in a thin film using 100-200 μL of the solution (2-4 drops). The solution was left to dry and penetrate the skin for 20 minutes, after which both sides of the face were covered in the photosensitizer cream as per manufacturer's instructions, using 1-1.5 g of cream. The cream was left to penetrate the skin for 5-10 minutes and the patient was asked not to wash their face for 2 hours.\nThe patient was assessed first prior to treatment and subsequently 1 month after for the success and quantification of active acne on each side of the face by a qualified dermatologist.\nas §1, with “The left” for “The right”\nFor the purposes of the treatment, theobromine solution was applied to the left side of the face in a thin film using 100-200 μL of the solution (2-4 drops). […]\nThe patient was assessed first prior to treatment and subsequently 6 weeks after for the success and quantification of active acne on each side of the face by a qualified dermatologist."}, "[8]": {"test_system": "PARP", "details": "only compound with activity on PARP in addition to ATM and ATR; cited from earlier work"}, "[9]": {"test_system": "DNA repair", "details": "in vitro, through modulating the activity of ATM/ATR kinases, as well as PARP; references 10,11,12,14; cited from earlier work"}}, "note": "Entries after “also recorded” stand apart in the source; their conditions may differ."}
{"smiles": "Cn1c(=O)c2c(ncn2C)n(C)c1=O", "note": "[caffeine]", "values": [{"measurement": "ATM inhibition", "setting": "[1]", "result": "inhibitors of both ATM and ATR"}, {"measurement": "ATR inhibition", "setting": "[2]", "result": "inhibitors of both ATM and ATR"}, {"measurement": "radiosensitising activity", "setting": "[3]", "result": "radiosensitisers"}]}
{"smiles": "COC(=O)CCC(=O)CN", "note": "[methyl aminolevulinate]", "values": [{"measurement": "average clearance of active lesions", "setting": "[4]", "result": 32, "unit": "%"}]}
{"smiles": "CC(=O)CCCCn1c(=O)c2c(ncn2C)n(C)c1=O", "note": "[pentoxyphilline]", "values": [{"measurement": "radiosensitising activity", "setting": "[3]", "result": "radiosensitisers"}, {"measurement": "clinical benefit as radiosensitiser", "setting": "[5]", "result": "failed to provide consistent benefits"}]}
{"smiles": "Cn1cnc2c1c(=O)[nH]c(=O)n2C", "note": "[theobromine]", "values": [{"measurement": "improvement of actinic keratosis", "setting": "[6]; no photosensitizer", "result": "No improvement of actinic keratoses was observed; also recorded: No improvement of actinic keratosis was observed"}, {"measurement": "redness or soreness", "setting": "[6]", "result": "No redness or soreness were observed"}, {"measurement": "patient-reported adverse effects", "setting": "[7]; 1 month (Examples 8, 9, 10) or 6 weeks (Example 11)", "result": "No patient-reported adverse effects"}, {"measurement": "improvement of acne", "setting": "[7]; 1 month after (Examples 8, 9, 10)", "result": "did not improve acne"}, {"measurement": "improvement of acne", "setting": "[7]; 6 weeks after (Example 11)", "result": "did not improve acne"}, {"measurement": "ATM inhibition", "setting": "[1]", "result": "inhibitors of both ATM and ATR"}, {"measurement": "ATR inhibition", "setting": "[2]", "result": "inhibitors of both ATM and ATR"}, {"measurement": "PARP inhibitory activity", "setting": "[8]", "result": "measurable PARP inhibitory activity"}, {"measurement": "radiosensitising activity", "setting": "[3]", "result": "radiosensitisers"}, {"measurement": "inhibition of DNA repair", "setting": "[9]", "result": "inhibit DNA repair in vitro"}]}
{"smiles": "Cn1c(=O)c2[nH]cnc2n(C)c1=O", "note": "[theophylline]", "values": [{"measurement": "radiosensitising activity", "setting": "[3]", "result": "radiosensitisers"}]}
